# Source: US9844560B2, “Use of ginsenoside M1 for treating lupus nephritis” (priority 2014, dated 2017)
# Experiments:
# Format in all cases: in vivo, NZB/W F1 mice
# [1] = test system: accelerated severe lupus nephritis (ASLN) mouse model; experiment: Urine protein, hematuria and renal function in ASLN mouse model
# Experimental: An accelerated severe lupus nephritis (ASLN) mouse model was established in 8-week-old female NZB/W F1 mice by twice weekly intraperitoneal injection of lipopolysaccharide (LPS, 20 mg/kg body weight) (Sigma, NO, USA) as described in Shui et al., 2007 [51]. Two days after first dose of LPS for the ASLN induction, the mice were divided into two groups of more than 6 mice each and daily administrated with ginsenoside M1 or vehicle (normal saline) via oral gavage till mice sacrificed. 8-Week-old NZB/W F1 female mice (prior to onset of autoantibody production), injected with normal saline, were used as normal controls. All mice were killed at week 5 after disease induction. The tissue specimens of spleen, renal cortical tissue, blood, and urine were collected at the indicated times and stored appropriately before analysis. Urine samples were collected in metabolic cages every week and urine protein levels were measured, and serum samples were collected to measure serum levels of blood urea nitrogen (BUN) and creatinine (Cr) as described previously (Ka, S. M. et al. Decoy receptor 3 ameliorates an autoimmune crescentic glomerulonephritis model in mice. J Am Soc Nephrol 18:2473-2485; 2007).
# [2] = test system: accelerated severe lupus nephritis (ASLN) mouse model; experiment: Renal histopathology (H&E) in ASLN mouse model; settings: ASLN mice, H&E light microscopy, FIG. 2
# Experimental: An accelerated severe lupus nephritis (ASLN) mouse model was established in 8-week-old female NZB/W F1 mice by twice weekly intraperitoneal injection of lipopolysaccharide (LPS, 20 mg/kg body weight) (Sigma, NO, USA) as described in Shui et al., 2007 [51]. Two days after first dose of LPS for the ASLN induction, the mice were divided into two groups of more than 6 mice each and daily administrated with ginsenoside M1 or vehicle (normal saline) via oral gavage till mice sacrificed. 8-Week-old NZB/W F1 female mice (prior to onset of autoantibody production), injected with normal saline, were used as normal controls. All mice were killed at week 5 after disease induction. […]
# Renal tissues were formalin-fixed, embedded in paraffin, and sections (3 μm) prepared and stained with hematoxylin and eosin (H&E) for renal histopathology as described previously. Quantitative analysis was performed by optical microscopy (Olympus BX51, Reflected Fluorescence System, Japan). The examination of renal pathology and scoring were performed in a blinded manner by a pathologist, and the severity of renal lesions was scored. The percentage of glomeruli showing proliferation, neutrophil infiltration, crescent formation, fibrinoid necrosis, and periglomerular inflammation was calculated from at least 100 randomly sampled glomeruli.
# anti-dsDNA antibodies = experiment: Serum anti-dsDNA antibodies (ELISA) in ASLN mice; settings: vs ASLN group, p<0.01, FIG. 3
# Experimental: (§1) An accelerated severe lupus nephritis (ASLN) mouse model was established in 8-week-old female NZB/W F1 mice by twice weekly intraperitoneal injection of lipopolysaccharide (LPS, 20 mg/kg body weight) (Sigma, NO, USA) as described in Shui et al., 2007 [51]. Two days after first dose of LPS for the ASLN induction, the mice were divided into two groups of more than 6 mice each and daily administrated with ginsenoside M1 or vehicle (normal saline) via oral gavage till mice sacrificed. 8-Week-old NZB/W F1 female mice (prior to onset of autoantibody production), injected with normal saline, were used as normal controls. All mice were killed at week 5 after disease induction. The tissue specimens of spleen, renal cortical tissue, blood, and urine were collected at the indicated times and stored appropriately before analysis.
# Serum levels of anti-dsDNA antibodies were measured using an anti-mouse dsDNA enzyme-linked immunosorbent assay (ELISA) kit (Alpha Diagnostic, TX, USA) according to the manufacturer's instructions. The absorbance at 450 nm was measured using an ELISA plate reader (Bio-Tek, VT, USA).
# renal ROS production = experiment: Reactive oxygen species (superoxide anion, DHE labeling) in kidney of ASLN mice
# Experimental: as §1
# Kidney in situ superoxide anion production was determined by dihydroethidium (DHE) labeling. Fluorescent images were quantified by counting the percentage of positive nuclei in the total nuclei per kidney cross-section. Superoxide anion levels in serum and kidney tissues were measured as described previously and the results expressed as reactive luminescence units (RLU) per 15 min per milligram dry weight (i.e., RLU/15 min/mg dry weight).
# [3] = test system: serum inflammatory cytokines; experiment: Serum cytokine detection (Cytometric Bead Array) in ASLN mice; settings: vs ASLN group
# Experimental: as §1
# To detect the level of IFN-γ, MCP-1, IL-12 p70, IL-6, TNF-α and IL-10 in serum by using BD Cytometric Bead Array Mouse Inflammation kit (BD Biosciences), according to the standard protocol, followed by flow cytometry (BD Biosciences).
# T cells in splenocytes = experiment: T cell proliferation in splenocytes of ASLN mice (3H-methyl thymidine); settings: anti-CD3 stimulated splenocytes, vs ASLN group, p<0.01, FIG. 6
# Experimental: as §1
# Splenocytes from the mice were prepared as described previously, then were cultured in triplicate in wells (2.5×10^5 cells/well) in 96-well flat-bottom microtiter plates previously coated overnight at 4° C. with 0.25 μg/ml anti-mouse CD3 (145-2C11) antibodies (BD Biosciences). After 48 h, the cultures were pulsed with […] of ^3H-methyl thymidine (Amersham Pharmacia Biotech, Piscataway, N.J.) and harvested 16-18 h later, and the incorporated ^3H-methyl thymidine was measured using a Top Count (Packard, PerkinElmer, Boston, Mass.) as described previously.
# [4] = test system: Toll-like receptor (TLR)7 gene expression; experiment: Real-time RT-PCR of renal cortex TLR7 mRNA in ASLN mice; settings: normalized to GAPDH, vs ASLN group, p<0.01, FIG. 7
# Experimental: as §1
# Renal cortex RNA was extracted using TRIzol reagent (Invitrogen) according to the manufacturer's instructions, and real-time reverse transcription-polymerase chain reaction (RT-PCR) was used to measure Toll-like receptor (TLR)7 gene expression. Real-time quantification was performed using a Bio-Rad iCycler iQ system according to the manufacturer's instructions. Amplifications were normalized to the values for GAPDH using the 2^−ΔCt method.
smiles,measurement,setting,value
"CC(C)=CCC[C@](C)(O[C@@H]1OC(CO)[C@@H](O)[C@@H](O)C1O)[C@H]1CC[C@]2(C)C1[C@H](O)CC1[C@@]3(C)CC[C@H](O)C(C)(C)C3CC[C@]12C (stereo partly drawn) [ginsenoside M1, 20-O-β-D-glucopyranosyl-20(S)-protopanaxadiol]",serum level of BUN,"[1]; ASLN mice, daily oral gavage, vs ASLN group, p<0.05, FIG. 1C",significantly decreased
same,serum level of creatinine,"[1]; ASLN mice, daily oral gavage, vs ASLN group, p<0.05, FIG. 1D",significantly decreased
same,proteinuria (urine albumin/creatinine ratio),"[1]; ASLN mice, daily oral gavage, vs ASLN group, FIG. 1A",significantly decreased
same,hematuria,"[1]; ASLN mice, daily oral gavage, vs ASLN group, FIG. 1B",significantly decreased
same,development of lupus nephritis (overall conclusion),[1]; summary of the ASLN mouse study,effective in preventing development of lupus nephritis
same,"renal lesions (neutrocyte infiltration, crescent-like formation, periglomerular inflammation, tubular atrophy, proteinaceous casts, fibrinoid necrosis)","[2]; vs ASLN+vehicle, all p<0.005",greatly decreased
same,glomerular proliferation,[2],mild glomerular proliferation was present
same,serum anti-dsDNA antibody level,anti-dsDNA antibodies,significantly decreased
same,renal ROS production (superoxide anion levels in renal tissues),"renal ROS production; vs ASLN group, p<0.01, FIG. 4A",significantly decreased
same,DHE fluorescence intensity (in situ ROS production in kidney),"renal ROS production; week 3, FIGS. 4B and 4C",very low
same,DHE fluorescence intensity (in situ ROS production in kidney),"renal ROS production; week 5, FIGS. 4B and 4C",very low
same,serum MCP-1,"[3]; p<0.005, FIG. 5B",significantly decreased
same,serum IL-12 p70,"[3]; p<0.005, FIG. 5C",significantly decreased
same,serum IL-6,"[3]; p<0.005, FIG. 5D",significantly decreased
same,serum TNFα,"[3]; p<0.005, FIG. 5E",significantly decreased
same,serum IL-10,"[3]; p<0.005, FIG. 5F",significantly decreased
same,serum IFN-γ,"[3]; p<0.01, FIG. 5A",significant decreased
same,proliferation of T cells in splenocytes,T cells in splenocytes,significant decreased
same,renal mRNA levels of TLR7,[4],significantly decreased
